Reference: PubChem BioAssay AID1053202 (The Scripps Research Institute Molecular Screening Center, 2014)
Active and inactive are the calls of the source.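 The calls were made as follows: active = Ki at or below 10 µM; inactive = Ki above 10 µM.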

Each molecule was assayed against Fibrinogen beta chain (Homo sapiens) (UniProt P02675) (assay: inhibitors of Tn6 peptide binding to fibrin DD(E), late-stage follow-up, biochemical, fluorescence polarization, Ki, set 1 (AID 1053202)). Conditions: Purified DD(E), TRITC-Tn6 peptide displacement, protein 1 µM, probe 0.05 µM.
Sequence of Fibrinogen beta chain (Homo sapiens) (P02675 whole entry, looked up): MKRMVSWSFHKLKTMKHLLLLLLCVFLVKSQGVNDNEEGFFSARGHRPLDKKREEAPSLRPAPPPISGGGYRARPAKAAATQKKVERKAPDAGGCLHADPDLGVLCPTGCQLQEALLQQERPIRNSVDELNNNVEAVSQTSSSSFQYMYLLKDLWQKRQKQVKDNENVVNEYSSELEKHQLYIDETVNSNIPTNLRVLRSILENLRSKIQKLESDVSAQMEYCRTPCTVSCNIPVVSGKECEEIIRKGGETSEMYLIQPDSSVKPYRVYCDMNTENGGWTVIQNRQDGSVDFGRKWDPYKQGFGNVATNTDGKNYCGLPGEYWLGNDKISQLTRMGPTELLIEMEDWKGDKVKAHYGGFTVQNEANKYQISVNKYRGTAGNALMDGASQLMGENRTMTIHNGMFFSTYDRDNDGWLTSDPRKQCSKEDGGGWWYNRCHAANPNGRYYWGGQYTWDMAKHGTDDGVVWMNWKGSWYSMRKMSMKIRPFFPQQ

Ki	Compound
5.11 µM	CCn1c(CSc2n[nH]c(N)n2)nc2cc(C(=O)O)ccc21
3.75 µM	CCn1c(CSc2nnc(-c3ccncc3)n2CCOC)nc2cc(C(=O)O)ccc21
2.3 µM	CCn1c(CSc2nnc3ccccn23)nc2cc(C(=O)O)ccc21
5.1 µM	CCn1c(CSc2nnc(-c3ccncc3)n2C)nc2cc(C(=O)O)ccc21
inactive	CCn1c(CSc2nccn2C)nc2cc(C(=O)O)ccc21
inactive	OCCn1c(CSc2nnc(-c3ccc4c(c3)OCO4)o2)nc2ccc(Cl)cc21
inactive	CCn1c(CSc2nc3ccccc3[nH]2)nc2cc(C(=O)O)ccc21
inactive	CCn1c(CSc2ncn[nH]2)nc2cc(C(=O)O)ccc21

Same assay, conditions: Purified DD(E), TRITC-Tn6 peptide displacement, protein 2 µM, probe 0.1 µM

Ki	Compound
inactive	CCn1c(CSc2nc3ccccc3c(=O)n2-c2ccccc2F)nc2cc(C(=O)O)ccc21
inactive	CCn1c(CSc2nnc(-c3ccoc3C)o2)nc2cc(S(=O)(=O)N(C)C)ccc21
inactive	CCCCn1c(CSc2nc3ccccc3[nH]2)nc2cc(S(N)(=O)=O)ccc21
inactive	COc1ccc2nc(SCc3nc4ccc(Cl)cc4n3CCO)[nH]c2c1
inactive	Nc1nnc(SCc2nc3ccccc3[nH]2)s1
2.46 µM	CCn1c(CSc2nc(C3CC3)n(-c3ccccc3)n2)nc2cc(S(=O)(=O)N(C)C)ccc21
5.01 µM	CCn1c(CSc2nncn2C)nc2cc(C(=O)O)ccc21
inactive	CCCCn1c(CSc2nnc(-c3ccccc3F)n2C)nc2cc(S(N)(=O)=O)ccc21
inactive	CCn1c(CSc2nnnn2C(C)C)nc2cc(C(=O)O)ccc21
5.1 µM	CCn1c(CSc2nccn2C)nc2cc(S(=O)(=O)N3CCCCC3)ccc21
inactive	CCCCn1c(CSc2nnc(-c3ccccc3F)n2N)nc2cc(S(N)(=O)=O)ccc21
5.1 µM	CCCn1c(SCc2nc3cc(S(=O)(=O)N4CCOCC4)ccc3n2CCC)n[nH]c1=O
inactive	CCCCn1c(CSc2nnc(-c3ccco3)n2C)nc2cc(S(N)(=O)=O)ccc21
inactive	OCCn1c(CSc2nc3ccccc3o2)nc2ccc(Cl)cc21
1.34 µM	CCCn1c(SCc2nc3cc(C(=O)O)ccc3n2CC)nc2ccccc2c1=O
inactive	CCn1c(CSc2n[nH]c(-c3ccccc3)n2)nc2cc(S(=O)(=O)N3CCCCC3)ccc21
4.57 µM	CCn1c(CSc2nc3ccccc3s2)nc2cc(C(=O)O)ccc21
inactive	CCn1c(CSc2ccc(NC(C)=O)cc2)nc2cc(C(=O)O)ccc21
inactive	CCn1c(CSc2nc3sc4c(c3c(=O)n2CCOC)CCCC4)nc2cc(C(=O)O)ccc21
inactive	CCn1c(CSc2nnnn2-c2ccccc2)nc2cc(C(=O)O)ccc21
2.3 µM	CCn1c(CSc2nnc(N)s2)nc2cc(F)ccc21
inactive	CCn1c(CSc2ncnc3sc(C)c(C)c23)nc2cc(C(=O)O)ccc21
inactive	Nn1cc(-c2ccccc2)nc1SCc1nc2ccc(Cl)cc2n1CCO
inactive	C=CCn1c(SCc2nc3ccc(Cl)cc3n2CCO)nnc1-c1ccc(Cl)cc1
inactive	CCn1c(CSc2n[nH]c(N)n2)nc2cc(F)ccc21
5.6 µM	CCn1c(CSc2nnc(COc3ccc(OC)cc3)n2-c2ccccc2F)nc2cc(C(=O)O)ccc21
2.82 µM	CCn1c(CSc2nnc(Nc3ccccc3F)s2)nc2cc(C(=O)O)ccc21
inactive	C=CCNc1nnc(SCc2nc3cc(S(=O)(=O)N(C)C)ccc3n2CCC)s1
inactive	CCCCn1c(CSc2n[nH]c(=O)n2CCC)nc2cc(S(N)(=O)=O)ccc21
